Measured values: ChEMBL document CHEMBL1909046, “DrugMatrix in vitro pharmacology data”

Assays:
[1] = target: 5-hydroxytryptamine receptor 2B (Homo sapiens, UniProt P41595); format: cell membranes, CHO-K1, Membrane; note: in other assays of this panel Not Active means under 50% inhibition at 10 µM
[2] = target: Mitogen-activated protein kinase 1 (Homo sapiens, UniProt P28482); assay: DRUGMATRIX: Protein Serine/Threonine Kinase, ERK2 enzyme inhibition (substrate: Myelin Basic Protein); set-up: species or system Escherichia coli; details: Not Active = under 50% inhibition at 10 µM
Mitogen-activated protein kinase 1, sequence (P28482 whole entry): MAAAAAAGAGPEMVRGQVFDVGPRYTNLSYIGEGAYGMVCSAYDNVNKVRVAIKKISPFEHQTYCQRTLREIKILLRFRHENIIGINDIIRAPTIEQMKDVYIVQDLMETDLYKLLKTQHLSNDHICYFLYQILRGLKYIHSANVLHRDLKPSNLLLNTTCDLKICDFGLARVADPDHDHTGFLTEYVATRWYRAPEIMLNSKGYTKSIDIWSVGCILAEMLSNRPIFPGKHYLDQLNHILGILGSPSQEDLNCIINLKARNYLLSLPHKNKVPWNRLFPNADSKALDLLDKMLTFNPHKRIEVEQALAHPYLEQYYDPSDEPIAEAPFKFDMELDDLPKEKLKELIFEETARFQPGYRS

[3] = target: T1, C-C chemokine receptor type 4 (Homo sapiens, UniProt P51679); format: cell membranes, Membrane; details: chem-1; note: in other assays of this panel Not Active means under 50% inhibition at 10 µM
T1 sequence (P51679 whole entry): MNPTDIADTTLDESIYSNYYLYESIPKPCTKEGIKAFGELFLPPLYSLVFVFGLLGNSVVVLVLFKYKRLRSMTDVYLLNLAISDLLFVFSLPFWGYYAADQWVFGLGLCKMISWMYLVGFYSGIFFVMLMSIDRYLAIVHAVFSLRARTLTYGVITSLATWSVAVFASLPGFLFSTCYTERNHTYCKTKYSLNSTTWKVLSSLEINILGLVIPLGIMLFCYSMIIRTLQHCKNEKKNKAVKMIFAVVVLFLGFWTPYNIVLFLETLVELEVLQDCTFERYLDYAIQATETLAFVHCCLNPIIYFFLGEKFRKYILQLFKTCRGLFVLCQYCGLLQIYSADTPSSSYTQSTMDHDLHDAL

[4] = DRUGMATRIX: Calcium Channel Type L, Benzothiazepine radioligand binding (ligand: [3H] Diltiazem); format: cell membranes, Rattus norvegicus, Wistar, Brain, Membrane; details: Not Active = under 50% inhibition at 10 µM
[5] = target: Histamine H2 receptor (Homo sapiens, UniProt P25021); format: cell membranes, CHO-K1, Membrane; details: cho-k1; note: in other assays of this panel Not Active means under 50% inhibition at 10 µM
Histamine H2 receptor, sequence (P25021 whole entry): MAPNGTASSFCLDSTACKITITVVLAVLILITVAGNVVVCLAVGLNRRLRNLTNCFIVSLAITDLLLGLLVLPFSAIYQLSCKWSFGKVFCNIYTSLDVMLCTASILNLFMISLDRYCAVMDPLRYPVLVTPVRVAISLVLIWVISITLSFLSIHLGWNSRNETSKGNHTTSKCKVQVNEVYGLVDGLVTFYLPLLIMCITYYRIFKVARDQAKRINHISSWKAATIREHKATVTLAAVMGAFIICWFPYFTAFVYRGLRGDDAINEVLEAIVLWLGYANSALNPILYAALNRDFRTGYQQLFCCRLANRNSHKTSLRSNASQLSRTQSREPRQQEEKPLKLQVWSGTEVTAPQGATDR

[6] = target: D(1A) dopamine receptor (Homo sapiens, UniProt P21728); assay: DRUGMATRIX: Dopamine D1 radioligand binding (ligand: [3H] SCH-23390); format: cell membranes, Membrane; details: cho; Not Active = under 50% inhibition at 10 µM
D(1A) dopamine receptor, sequence (P21728 whole entry): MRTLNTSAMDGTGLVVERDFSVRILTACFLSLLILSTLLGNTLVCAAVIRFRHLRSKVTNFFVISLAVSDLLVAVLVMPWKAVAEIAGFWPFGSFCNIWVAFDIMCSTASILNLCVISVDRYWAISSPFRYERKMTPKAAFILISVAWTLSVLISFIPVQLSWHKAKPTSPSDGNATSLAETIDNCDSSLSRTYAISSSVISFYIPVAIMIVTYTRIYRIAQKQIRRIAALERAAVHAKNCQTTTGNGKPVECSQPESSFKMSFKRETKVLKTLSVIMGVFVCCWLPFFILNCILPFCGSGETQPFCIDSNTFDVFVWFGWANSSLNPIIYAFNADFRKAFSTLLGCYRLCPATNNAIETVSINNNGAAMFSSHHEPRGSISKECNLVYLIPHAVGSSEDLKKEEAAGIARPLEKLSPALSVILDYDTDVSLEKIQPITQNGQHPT

5-hydroxytryptamine receptor 2B, sequence (P41595 whole entry): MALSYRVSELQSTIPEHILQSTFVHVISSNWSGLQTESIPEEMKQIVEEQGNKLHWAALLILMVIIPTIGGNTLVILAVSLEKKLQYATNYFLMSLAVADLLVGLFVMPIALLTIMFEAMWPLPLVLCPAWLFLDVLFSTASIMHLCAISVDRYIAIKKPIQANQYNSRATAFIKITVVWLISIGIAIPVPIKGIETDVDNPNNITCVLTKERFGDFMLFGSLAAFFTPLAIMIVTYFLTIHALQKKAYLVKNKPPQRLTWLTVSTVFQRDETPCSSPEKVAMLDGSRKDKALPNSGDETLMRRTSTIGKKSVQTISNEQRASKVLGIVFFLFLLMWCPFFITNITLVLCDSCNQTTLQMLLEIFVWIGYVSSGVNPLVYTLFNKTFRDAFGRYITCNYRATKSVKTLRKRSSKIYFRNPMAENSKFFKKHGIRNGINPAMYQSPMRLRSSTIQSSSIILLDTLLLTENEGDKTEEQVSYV

CC(=O)Nc1c(I)c(NC(C)=O)c(I)c(C(=O)O)c1I [DIATRIZOIC ACID]
Not Active: IC50 ([1]; cho-k1) | IC50 [2] | IC50 [3] | IC50 [4] | Ki [4] | IC50 [5] | IC50 [6]

COP(=O)(OC)OC=C(Cl)Cl [DICHLORVOS]
Not Active: IC50 ([1]; cho-k1) | IC50 [2] | IC50 [3] | IC50 [4] | Ki [4] | IC50 [5] | IC50 [6]

O=C(O)Cc1ccccc1Nc1c(Cl)cccc1Cl [DICLOFENAC]
Not Active: IC50 ([1]; cho-k1) | IC50 [2] | IC50 [3] | IC50 [4] | Ki [4] | IC50 [5] | IC50 [6]

C[C@H]1O[C@@H](O[C@H]2[C@@H](O)C[C@H](O[C@H]3[C@@H](O)C[C@H](O[C@H]4CC[C@@]5(C)[C@H](CC[C@@H]6[C@@H]5CC[C@]5(C)[C@@H](C7=CC(=O)OC7)CC[C@]65O)C4)O[C@@H]3C)O[C@@H]2C)C[C@H](O)[C@@H]1O [DIGITOXIN]
Not Active: IC50 ([1]; cho-k1) | IC50 [2] | IC50 [3] | IC50 [4] | Ki [4] | IC50 [5] | IC50 [6]

CCN1CC(CCN2CCOCC2)C(c2ccccc2)(c2ccccc2)C1=O (configuration not stated) [DOXAPRAM]
Not Active: IC50 ([1]; cho-k1) | IC50 [2] | IC50 [3] | IC50 [4] | Ki [4] | IC50 [5] | IC50 [6]

Cn1c(=O)c2c(ncn2CC2OCCO2)n(C)c1=O [DOXOFYLLINE]
Not Active: IC50 ([1]; cho-k1) | IC50 [2] | IC50 [3] | IC50 [4] | Ki [4] | IC50 [5] | IC50 [6]

COc1cccc2c1C(=O)c1c(O)c3c(c(O)c1C2=O)C[C@@](O)(C(=O)CO)C[C@@H]3O[C@H]1C[C@H](N)[C@H](O)[C@H](C)O1 [DOXORUBICIN]
Not Active: IC50 ([1]; cho-k1) | IC50 [2] | IC50 [3] | IC50 [4] | Ki [4] | IC50 [5] | IC50 [6]

COc1cccc2c1C(=O)c1c(O)c3c(c(O)c1C2=O)C[C@@](O)(C(=O)CO)C[C@@H]3O[C@H]1C[C@H](N)[C@@H](O)[C@H](C)O1 [EPIRUBICIN]
Not Active: IC50 ([1]; cho-k1) | IC50 [2] | IC50 [3] | IC50 [4] | Ki [4] | IC50 [5] | IC50 [6]

C[C@]12CC[C@@H]3c4ccc(OC(=O)c5ccccc5)cc4CC[C@H]3[C@@H]1CC[C@@H]2O [ESTRADIOL BENZOATE]
Not Active: IC50 [2] | IC50 [3] | IC50 [4] | Ki [4] | IC50 [5] | IC50 [6]
7.36 µM: Ki ([1]; read-out: Ki)
11.6 µM: IC50 ([1]; read-out: IC50)

C[C@]12CC[C@@H]3c4ccc(O)cc4CC[C@H]3[C@@H]1CC[C@@H]2O [ESTRADIOL]
Not Active: IC50 ([1]; cho-k1) | IC50 [2] | IC50 [3] | IC50 [4] | Ki [4] | IC50 [5] | IC50 [6]

CC[C@@H](CO)NCCN[C@@H](CC)CO [ETHAMBUTOL]
Not Active: IC50 ([1]; cho-k1) | IC50 [2] | IC50 [3] | IC50 [4] | Ki [4] | IC50 [5] | IC50 [6]

CC1(C)O[C@@H]2C[C@H]3[C@@H]4C[C@H](F)C5=CC(=O)C=C[C@]5(C)[C@H]4[C@@H](O)C[C@]3(C)[C@]2(C(=O)CO)O1 [FLUNISOLIDE]
Not Active: IC50 ([1]; cho-k1) | IC50 [2] | IC50 [3] | IC50 [4] | Ki [4] | IC50 [5] | IC50 [6]

CC1(C)O[C@@H]2C[C@H]3[C@@H]4C[C@H](F)C5=CC(=O)C=C[C@]5(C)[C@@]4(F)[C@@H](O)C[C@]3(C)[C@]2(C(=O)CO)O1 [FLUOCINOLONE ACETONIDE]
Not Active: IC50 ([1]; cho-k1) | IC50 [2] | IC50 [3] | IC50 [4] | Ki [4] | IC50 [5] | IC50 [6]
